# Experimental data taken from patent US8946286B2, “Organic amine salts of aminobenzoic acid derivatives and method for producing same” (Nissan Chemical Industries, Ltd., priority 2010, dated 2015).
# Legend:
# Thermal stability test = format: physicochemical; conditions: 60° C. for 2 weeks without humidity control, brown glass vessel
# Description: (§1) In the following Assay Examples 2 to 4, the stability of the ethanolamine salt (1), tromethamine salt (2), choline salt (3) and potassium salt (4) of 3-{[((2E)-2-{1-[5-(4-t-butylphenyl)-4-hydroxy-3-thienyl]ethylidene}hydrazino)carbonothioyl]amino}benzoic acid to temperature, humidity and light was evaluated, by related substance increase (%), weight change (%) or TG loss change (%) through appropriate selection.
# (§2) Related substance increase (%)
# (§3) Each sample was analyzed by high performance liquid chromatography before and after treatment, and the sum of area percentages for analogues in each sample were calculated. • Column: L-column ODS (Chemicals Evaluation and Research Institute, Japan inner diameter 4.6 mm, length 250 mm) • Detector: UV absorptiometer (wavelength; […]) • Column temperature: 40° C. • Flow rate: 1.0 mL/min • Injection volume: 10 μL • Mobile phase: (a) 0.01 M ammonium formate buffer (pH 3.0) • (b) acetonitrile Measurements were carried out with a gradient between the above (a) and (b) solutions.
# The thermal stability of the ethanolamine salt (1), tromethamine salt (2), choline salt (3) and potassium salt (4) of 3-{[((2E)-2-{1-[5-(4-t-butylphenyl)-4-hydroxy-3-thienyl]ethylidene}hydrazino)carbonothioyl]amino}benzoic acid was evaluated as follows.
# Each sample was put in a brown glass vessel, and the vessel was left at 60° C. for 2 weeks without humidity control. After 2 weeks, the sample was withdrawn, and the related substance increase (%) was evaluated.
# Hygrostability test = format: physicochemical; conditions: 25° C./90% RH for 2 weeks, vessel left open
# Description: as §1, §2, §3
# (§4) Each sample was weighed before and after treatment, and weight gain was calculated in percentages from the difference in weight. The magnitude of weight change during treatment is an indication of stability of a compound. TG loss change (%);
# (§5) About 5 mg of each sample was weighed out before and after treatment and put in an aluminum pan, and TG measurements were performed with the pan left open. The rate of TG loss of each sample was calculated in percentages (%). The measuring conditions are shown below.
# (§6) Measuring Conditions; • Instrument:TG8120 (Rigaku Corporation) • Measuring range: room temperature to 105° C. • Heating rate: 5° C./min • Atmosphere: air 50 mL/min
# (§7) An increase in TG loss from the initial value indicates possibility of moisture absorption and degradation of a compound. Therefore, the magnitude of change in TG loss is an indication of stability of a compound.
# The hygrostability of the ethanolamine salt (1), tromethamine salt (2), choline salt (3) and potassium salt (4) of 3-{[((2E)-2-{1-[5-(4-t-butylphenyl)-4-hydroxy-3-thienyl]ethylidene}hydrazino)carbonothioyl]amino}benzoic acid was evaluated as follows.
# About 1 g of each sample was put in a transparent glass vessel and maintained at 25° C./90% RH (relative humidity) for 2 weeks with the vessel left open. After 2 weeks, the sample was withdrawn, and the related substance increase (%), weight change (%) and TG loss change (%) were evaluated.
# Photostability test = format: physicochemical; conditions: 25° C./60% RH, vessel left open, light of 200 W·hr·m^2 for 57 hours
# Description: as §1, §2, §3, §4, §5, §6, §7
# The photostability of the ethanolamine salt (1), tromethamine salt (2), choline salt (3) and potassium salt (4) of 3-{[((2E)-2-{1-[5-(4-t-butylphenyl)-4-hydroxy-3-thienyl]ethylidene}hydrazino)carbonothioyl]amino}benzoic acid was evaluated as follows.
# About 1 g of each sample was put in a transparent glass vessel at 25° C./60% RH (relative humidity) with the vessel left open and irradiated with light of 200 W·hr·m^2 for 57 hours. […], the sample was withdrawn, and the related substance increase (%), weight change (%) and TG loss change (%) were evaluated.
# [1] = Initial values of TG loss and related substances before treatment; format: physicochemical; conditions: initial value before treatment; for Related substances (%): HPLC, sum of area percentages for analogues; for TG loss (%): TG room temperature to 105° C.
# Description: as §2, §3, §5, §6
# [2] = Oral absorption test on dogs; format: in vivo; conditions: beagle dogs, oral capsule, 360 mg/dog; ratio to Compound A (free form)
# Description: Oral Absorption Test on Dogs
# The free form (Compound A), potassium salt, organic amine salts (ethanolamine salt and tromethamine salt) and salt of quaternary ammonium ion (choline salt) of 3-{[((2E)-2-{1-[5-(4-t-butylphenyl)-4-hydroxy-3-thienyl]ethylidene}hydrazino)carbonothioyl]amino}benzoic acid in capsule were orally administered to beagle dogs at a dose of 360 mg/dog. 0.5, 1, 2, 4, 6, 8 and 24 hours after the administration, blood was collected to obtain plasma samples. Their concentrations in dog plasma were measured by LC/MS/MS. Using the plasma concentrations obtained, maximum plasma concentration (Cmax), time to maximum plasma concentration (Tmax) and area under the plasma concentration-time curve were calculated.
# In FIG. 1, * represents Compound A (Free Acid), ♦ represents the potassium salt (Potassium Salt), □ represents the choline salt (Choline Salt), ▴ represents ethanolamine (Ethanolamine Salt), and ◯ represents the tromethamine salt (Tromethamine Salt).
Structure (SMILES),Related substance increase (Thermal stability test),Related substance increase (Hygrostability test),TG loss change (Hygrostability test),Weight change (Hygrostability test),Related substance increase (Photostability test),TG loss change (Photostability test),Weight change (Photostability test),Related substances (%) [1],TG loss (%) [1],"area under the plasma concentration-time curve (AUC), times better than Compound A [2]","maximum plasma concentration (Cmax), times better than Compound A [2]"
"C/C(=N\NC(=S)Nc1cccc(C(=O)[O-])c1)c1csc(-c2ccc(C(C)(C)C)cc2)c1O.C[N+](C)(C)CCO [(3), Choline salt of 3-{[((2E)-2-{1-[5-(4-t-butylphenyl)-4-hydroxy-3-thienyl]ethylidene}hydrazino)carbonothioyl]amino}benzoic acid]",−0.01%,−0.01%,0.66%,0.10%,0.00%,0.58%,0.17%,0.34%,1.19%,,
"C/C(=N\NC(=S)Nc1cccc(C(=O)[O-])c1)c1csc(-c2ccc(C(C)(C)C)cc2)c1O.[K+] [(4), Potassium 3-{[((2E)-2-{1-[5-(4-t-butylphenyl)-4-hydroxy-3-thienyl]ethylidene}hydrazine)carbonothioyl]amino}benzoate, reference compound]",2.46%,0.39%,7.86%,23.22%,0.27%,3.16%,9.36%,1.86%,3.18%,6.3 times,7.2 times
"C/C(=N\NC(=S)Nc1cccc(C(=O)O)c1)c1csc(-c2ccc(C(C)(C)C)cc2)c1O.NCCO [(1), Ethanolamine salt of 3-{[((2E)-2-{1-[5-(4-t-butylphenyl)-4-hydroxy-3-thienyl]ethylidene}hydrazino)carbonothioyl]amino}benzoic acid]",0.16%,0.04%,−0.26%,0.29%,−0.01%,−0.25%,0.23%,0.34%,0.64%,,
"C/C(=N\NC(=S)Nc1cccc(C(=O)O)c1)c1csc(-c2ccc(C(C)(C)C)cc2)c1O.NC(CO)(CO)CO [(2), Tromethamine salt of 3-{[((2E)-2-{1-[5-(4-t-butylphenyl)-4-hydroxy-3-thienyl]ethylidene}hydrazino)carbonothioyl]amino}benzoic acid]",−0.01%,−0.03%,−0.13%,0.00%,0.01%,−0.13%,0.01%,0.07%,0.11%,,
